Experimental data: patent US12667584B2, “Adenosine analog and its use in regulating the circadian clock” (NATIONAL INSTITUTE OF BIOLOGICAL SCIENCES, BEIJING, priority 2017, dated 2026)
Where two headings read alike, the source gives them in different places.

How the values were obtained:
C57BL/6j mice = assay: Wheel running jet-lag experiment, 8 h phase advance or delay; type: in vivo, mouse; conditions: for With Pentostadin Cell Assay: Dose effect: 15 mg/kg
Procedure: Wheel running experiment: Male C57Bj/6 mice at 7 w old were purchased from the Nanjing Biomedical Research Institute of Nanjing University introduced from Jackson Laboratory, housed in individually wheel-running cage in a temperature- and humidity-controlled SPF facility, with ad libitum access to food and water. The animals were entrained under 12 h light/dark photoperiod for two weeks to synchronize the endogenous circadian clock of the mice to the ambient light-dark cycle, light intensity is about 50˜100 lux. After synchronization, light-dark cycles were 8-hr phase-advanced or phase-delayed. On the day of light-dark cycle was shifted advance, mice were firstly fasted at CT 3, then 15 mg/kg bw CA03, 15 and 30 mg/kg bw pro-CA03, 15 and 30 mg/kg bw pro-CA04 or DMSO were intraperitoneal injection at CT 12, and light on time (CT 0) was shifted from 7 am to 11 pm), finally re-feed and inject drug again at CT 23 of the old light-dark cycle. CA03 and pro-CA04 were firstly dissolved in DMSO to the concentration of 200 μg/μl, then dilute with saline to the final concentration of 1000 μg/ml for intraperitoneal injection. Pro-03 was firstly dissolved in DMSO to the concentration of 200 μg/μl, then dilute with 2% tween80 (in sterilized water) to the final concentration of 1000 μg/ml for intraperitoneal injection. On the day of light-dark cycle was shifted delayed, mice were firstly fasted at ZT 3, then 15 mg/kg bw CA03, 15 and 30 mg/kg bw pro-CA03, 15 and 30 mg/kg bw pro-CA04 or DMSO were intraperitoneal injection at CT 12, and light off time (CT12) was shifted from […] to 3 am), finally re-feed and inject drug again at CT 23 of the old light-dark cycle. Locomotor activity was recorded in 10-min bins wheel running (Actimetrics), and the data obtained were analysed with Clocklab software (Actimetrics). All animal experimental procedures were performed in accordance with the protocol approved by the Institutional Animal Care and Usage Committee (IACUC) of the National Institute of Biological Sciences, Beijing.
Under a standard jet-lag protocol {Yamaguchi, 2013}, wild-type C57BL/6j mice usually take ˜10 d to adapt to 8 h phase advance. […] Similarly, the drug treated mice adapt faster to the phase delay (FIG. 2D&2E).
To test whether cordycepin function in vivo, we firstly tested luciferase signal level by live imaging of Per2:LUC mice after intraperitoneal injection of 15 mg/kg cordycepin or DMSO. We found cordycepin induce more than 4 folds increase of luciferase signal in liver when compared with DMSO control (A). […] We also reconfirmed endogenous transcription rate of core clock genes by measuring the pre-mRNA with qPCR in the liver (B). We examined RRE genes (including Bmal1, Clock, Npas2, Cry1 and Nfil3), internal control genes (including Gapdh, Tbp and Actin) and E-box genes (including Per1, Per2, Dbp and Nr1d1). We designed at least 2 primers for each gene. […] Prior evaluation the jet-leg cure ability of cordycepin, we detected whether cordycepin and it's prodrug pro-CA03 can penetrate BBB. We injected cordycepin or pro-CA03 via tail vein and time course sampled CSF and analyzed cordycepin pro-CA03 level with HPLC-MASS method. […] Finally we evaluated the jet-leg cure ability of cordycepin, pro-CA03 and Pro-CA04 with mice behavioral experiment. Wild-type C57BL/6j mice typically take ˜10 days to adapt to an 8 h phase advance. […]

Per2:luc U2OS cells = assay: Real-time monitoring of circadian oscillation in lumicycle, Per2:luc U2OS cells; type: cell-based, human; conditions: for effect on the clock phase: in words
Procedure: Cell culture, drug treatment and Real-Time Monitoring of Circadian Oscillations: Per2-Luc reporter U2OS cells (D15) and Bmal1-Luc reporter U2OS cells (C26) cells were kept in DMEM medium (Gibco), supplemented with 10% FBS (Gibco) and 1% penicillin streptomycin mixture (Gibco). For Circadian Oscillation monitored with lumicycle (Actimetrics), cells were seeded at the density of 10^6 per 3.5 cm dish (Z688851-30EA). The medium was changed into XM medium (PH7.2, 10 mM HEPES, 350 mg/I bicarbonate, 1×B27, 100 IU/ml penicillin, 100 μg/ml streptomycin, 10 μg/ml gentamycin, and 100 μM d-Luciferin) 2 days after cell seeding. 3.5 cm dish was then sealed with high-vacuum grease (Dow Corning) and microscope cover glass, and transferred into lumicycle which was placed in an incubator (37° C.). For Drug treatment, 3.5 cm dish was taken out from lumicycle quickly at indicated time. After chemical was added into the medium, the dish was sealed again and put back into lumicycle. For Circadian Oscillation monitored with Tecan (Perkinelmer), cells were seeded at the density of […] per well for 384-well plate (CLS3610-48EA). 2 days later, the medium was changed into premixed XM medium with different chemicals with or without pentostatin (5 μg/ml). The plate was then sealing with sealing film (Sangon Biotech) and put into Tecan. Data from cells were collected in the Tecan luminometer at 37° C. for 5˜7 days.
The inventors conducted a chemical screen using the human osteosarcoma U2OS cell line so as to discover small molecules that modify the phase of the intracellular clock in mammals. In the primary screen, the inventors used two reporter lines of U2OS harboring a luciferase gene under control of either Per2 or Bmal1 promoter (named Per2-dLuc or Bmal1-dLuc cells), and set the threshold for at least 6 h phase-changes with no apparent amplitude-reduction in both cell lines. […] An institutional pilot chemical library consisting of approximately 10,000 small molecules was applied in this study. […] The inventors set to allow a free-run of the clock before administration of the compound over the course in order to eliminate the possibility that this phase-changing phenomenon was due to a combinative phenotype of medium-change plus the compound effect.
Circadian clock is a transcriptional based feedback loop, however different clock genes contain different cis-element and may show different response to the same stimulation. […] Since the close similar structure with adenosine and potential function of inhibiting transcription by preventing mRNA elongation, we tested whether adenosine and other deoxynucleoside could shift circadian phase. […] Therefore we further tested whether cordycepin utilize adenosine transporter to enter cell or utilize adenosine deaminase to degrade.
One prominent character of zeitgeiber is phase dependent function. Therefore, we further tested whether cordycepin also has the character.

SCN culture slice = assay: Ex vivo SCN slice culture from Per2::LUC mice, lumicycle; type: cell-based, mouse
Excerpt: Tissue culture, drug treatment and Real-Time Monitoring of Circadian Oscillations: 8 week-old male mPer2 Luciferase knockin mice were Sacrificed cervical dislocation. Then wipe the skin and neck with cotton containing 70% ethanol in a sterile hood. For SCN slice culture, firstly remove the eye balls from the head with scissors, decapitate and cut the skin. Then open the skull, remove all bone until the olfactory bulbs can be seen, cut the optic nerve between the olfactory bulbs and the hemispheres, and finally harvest the whole brain into ice cold HBSS. Trim the brain in HBSS by removing the cerebellum and olfactory bulbs. Attach the brain to a sample tray by glue with the rostral tip upwards and ventral surface closest to the cutting blade, then immediately fill the tray with ice cold HBSS and set the tray to the vibratome. Set the vibratome frequency at the maximum and the speed to the medium. To reach the SCN area quickly, the start cutting off thicker sections should be 500-800 μm. Reduce the sections thicker to 100 μm when the optic chiasm becomes wider. When the two SCN nuclei start to appear, collect the slice with transfer pipettes and check slices under dissecting microscope. […] Data was extract and analyzed with LumiCycle Analysis software. […]

kidney clocks = assay: Phase shift of kidney clock; type: cell-based
PER2 locus = assay: ChIP-qPCR analysis for the PER2 locus; type: cell-based
Procedure: Human and mouse circadian oscillators are driven by interlocked transcriptional and translational feedback loop. Bmal1 and Clock are transcriptional factors and function as positive arm to active negative arm genes transcription, including Per and Cry. Per and Cry are transcriptional repressor and feedback repress Bmal1/Clock's transcription activity thereby inhibit its own transcription. […] We also confirmed this by ChIP-qPCR experiments. Cordycepin treatment 30 min immediately release Cry1/2 and Ruvbl2 binding at Per2 gene promoter.

E-box genes = assay: Nascent pre-mRNA sequencing (nascent-seq) of U2OS cells; type: cell-based, human
Excerpt: Manipulating DRB's well characterized target CDK9 protein with AID degron mimics the phase shift curve of DRB in Per2-dLuc cells. […] Using nascent seq experiment, we found DRB treatment repress majority genes expression, but exclusively activates E-box containing gene both in vitro (FIG. 4).
(red color). […] Thus, perhaps the partial inhibition of CDK9 stimulates, rather than represses, the transcription of E-box genes. Right napel is UCSC genome browser views of E-box containing (NR1D1 and DBP) or non-E-box containing (BMAL1 and CRY1) clock genes

[1] = test system: Per2-Luc reporter U2OS cells (D15); assay: Circadian phase shift cell assay in D15 cells, 384 well plate, Tecan, with or without pentostatin; type: cell-based, human; conditions: concentration that shifts the circadian phase; for minimal effective concentration: without pentostatin, read-out: Cell Assay; for With Pentostadin Cell Assay: pentostatin 5 μg/ml

CCCCCCCC(=O)Nc1ncnc2c1ncn2[C@@H]1O[C@H](CO)C[C@H]1O
With Pentostadin Cell Assay: Dose effect (C57BL/6j mice): Dose effect (15 mg/kg)

Nc1nccc2c1ncn2[C@@H]1O[C@H](CO)[C@@H](O)[C@H]1O [3-deazaadenosine, 3-Deazaadenosine]
effect on the clock phase (Per2:luc U2OS cells): can shift circadian phase

Nc1ncnc2c1ccn2[C@@H]1O[C@H](CO)[C@@H](O)[C@H]1O [7-deazaadenosine, tubercidin]
effect on the clock phase (Per2:luc U2OS cells): can shift circadian phase

Nc1ncnc2c1ncn2[C@@H]1O[C@H](CO)[C@H](O)[C@H]1O [(3′R)-adenosine, 3′-(R)-adenosine]
effect on the clock phase (Per2:luc U2OS cells): can shift circadian phase

OC[C@H]1O[C@@H](n2cnc3cc(Cl)c(Cl)cc32)[C@H](O)[C@@H]1O [DRB, 5,6-dichloro-1-β-D-ribobenzimidazole]
clock phase of SCN slice (SCN culture slice): shift the phase | clock phase of kidney (kidney clocks): shift the phase | binding of BMAL1 at PER2 locus (PER2 locus): remained unchanged | binding of CRY2/RUVBL2 at PER2 locus (PER2 locus): released | nascent transcription of E-box genes (E-box genes; 1, 2, 4 h post administration): all up-regulated | newly synthesized mRNA of the majority of genes (E-box genes; within the first hour): reduced

CCCCCCCC(=O)Nc1ncnc2c1ncn2[C@@H]1O[C@H](CO)[C@H](O)[C@H]1O [Pro-CA04, N-octanoyl-9-(P-D-xylofuranosyl)-adenine]
adaption time after 8 phase advance (C57BL/6j mice; DMSO 10 days): ~5 days

Nc1ncnc2c1ncn2[C@@H]1O[C@H](CO)[C@@H](O)[C@H]1O [adenosine]
effect on phase effect induced by cordycepin (Per2:luc U2OS cells; excessive amount): inhibits the phase effect induced by cordycepin | effect on the clock phase (Per2:luc U2OS cells): not

Nc1ncnc2c1ccn2[C@@H]1O[C@H](CO)C(O)C1O (stereo partly drawn) [drawing 303]
minimal effective concentration ([1]; Homo sapiens, U2OS): 0.3 µM | With Pentostadin Cell Assay [1]: 0.3 µM

O=C(CCCC[C@@H]1SC[C@@H]2NC(=O)N[C@@H]21)Nc1ncnc2c1ncn2[C@@H]1O[C@H](CO)CC1O (stereo partly drawn) [drawing 315]
minimal effective concentration [1]: 200 µM

Nc1ncnc2c1ncn2[C@@H]1O[C@H](COC(=O)CCCC[C@@H]2SC[C@@H]3NC(=O)N[C@@H]32)CC1O (stereo partly drawn) [drawing 316]
minimal effective concentration [1]: 200 µM

Nc1ncnc2c1ccn2[C@@H]1O[C@H](CO)C(O)C1O (stereo partly drawn) [drawing 318]
With Pentostadin Cell Assay [1]: 25 µM

CCCCCCCC(=O)Nc1ncnc2c1ncn2[C@@H]1O[C@H](CO)[C@H](O)[C@H]1O [drawing 329]
With Pentostadin Cell Assay: Dose effect (C57BL/6j mice): Dose effect (15 mg/kg)

Nc1ncnc2c1c(Br)cn2[C@@H]1O[C@H](CO)[C@H](O)[C@H]1O [drawing 333]
minimal effective concentration ([1]; Homo sapiens, U2OS): > 500 µM | With Pentostadin Cell Assay [1]: 100 µM

Nc1ncnc2c1c(Br)cn2[C@@H]1O[C@H](CO)C[C@H]1O [drawing 349]
minimal effective concentration ([1]; Homo sapiens, U2OS): > 500 µM | With Pentostadin Cell Assay [1]: 100 µM

[2H]c1nc(N)c2nc([2H])n([C@@H]3O[C@H](CO)[C@H](O)[C@H]3O)c2n1 [drawing 353]
minimal effective concentration ([1]; Homo sapiens, U2OS): 12.5 µM | With Pentostadin Cell Assay [1]: 25 µM

OC[C@H]1O[C@@H](n2cnc3c2NC=NC[C@H]3O)C[C@@H]1O [pentostatin]
effect on the clock phase (Per2:luc U2OS cells): does not affect the clock phase | effect on the clock phase (Per2:luc U2OS cells; listed as Pentostatin): does not affect the clock at all
